Assay results from paper PMC11545984, “1,3-Dipolar Cycloaddition of Nitrile Oxides and Nitrilimines to (−)-β-Caryophyllene: Stereoselective Synthesis of Polycyclic Derivatives and Their Biological Testing” (International Journal of Molecular Sciences, 2024).

Legend:
[1] = Initial cytotoxicity testing (MTT test), HEK293; assay type: cell-based, human; conditions: human healthy cells, MTT, 72 h, two concentrations 50–100 µM
Description: (§1) Colon cancer (HCT116, HT29), breast cancer (MCF7, SKBR3), melanoma (SK-MEL28), lung cancer (A549), prostate cancer (DU145), human normal cells (VA-13 and HEK293), and murine mammary cell lines (EMT6) were purchased from ATCC (Manassas, VA, USA). Cells were routinely grown in RPMI 1640 culture medium, supplemented with 10% fetal bovine serum, glutamine, and 100 U/mL penicillin. HCT116, HT29, MCF7, SKBR3, SK-MEL28, A549, DU145, VA-13, HEK293, and EMT6 cells were grown in flasks in RPMI 1640 fresh culture medium with supplements at 37 °C and 5% CO2. Cells were grown as monolayer cultures, and the cells in the exponential growth phase were trypsinized and suspended in the supplemented RPMI 1640 medium.
(§2) To evaluate the cytotoxicity of the compounds, we placed cells in (20–30) × 10^3 cells/mL concentrations in 96-well culture plates for 24 h. Cells were counted after treatment with Trypan blue solution (0.4%). They were then exposed to two different concentrations of compounds 16–30 (50–100 µM) dilutions in pre-incubated cells at 37 °C for 72 h. In control wells with untreated cells, only (DMSO + PBS) was added. Cell viability was measured by the standard MTT test. The stock solutions of each compound were prepared in DMSO following by preparation of serial dilutions in PBS.
(§3) The absorbance was measured at 540 nm using a Multiskan™ FC microplate photometer and the Skanlt software 6.1 RE for microplate reader, both from Thermo Scientific (Waltham, MA, USA). Experiments were carried out in triplicate; to perform the statistical analysis, more concentrations should be evaluated.

A549 = assay: Initial cytotoxicity testing (MTT test), A549; assay type: cell-based, human; conditions: Homo sapiens, A549, 72 h, read-out: cytotoxicity A549
Description: as §1, §2, §3

[2] = Initial cytotoxicity testing (MTT test), VA-13; assay type: cell-based, human; conditions: human healthy cells, MTT, 72 h, two concentrations 50–100 µM
Description: as §1, §2, §3

DU145 = assay: Initial cytotoxicity testing (MTT test), DU145; assay type: cell-based, human; conditions: Homo sapiens, DU-145, 72 h, read-out: cytotoxicity DU145
Description: as §1, §2, §3

in vitro = conditions: dog
[3] = tested on: influenza virus A/Puerto Rico/8/34 (H1N1); assay: Antiviral (cytoprotective) activity in MDCK cells, MTT; assay type: cell-based; conditions: H1N1; infected MDCK cells, m.o.i. 0.01, 48 h, 50% cell protection; read-out: IC50
HEK293 = assay: Initial cytotoxicity testing (MTT test), HEK293; assay type: cell-based, human; conditions: Homo sapiens, HEK293; normal cells, initial testing
Description: as §1, §2, §3

VA-13 = assay: Initial cytotoxicity testing (MTT test), VA-13; assay type: cell-based, human; conditions: Homo sapiens, VA-13; normal cells, initial testing
Description: as §1, §2, §3

C/C1=C\CC[C@@]2(CC(c3ccc(Cl)cc3)=NO2)[C@H]2CC(C)(C)[C@@H]2CC1 [Compound 16a, (1S,2R,9R,E)-3′-(4-Chlorophenyl)-6,10,10-trimethyl-4′H-spiro[bicyclo [7.2.0]undecane-2,5′-isoxazol]-5-ene]
IC50 at 72 h [1]: > 50 µM | IC50 (A549): > 50 µM | IC50 at 72 h [2]: > 50 µM | IC50 (DU145): > 50 µM | CC50 at 48 h (in vitro): 125 ± 6.5 µM | IC50 [3]: 9.8 ± 1.3 µM

C=C1CC[C@@H]2C(c3ccc(Cl)cc3)=NO[C@@]2(C)CC[C@@H]2[C@@H]1CC2(C)C [Compound 16b, (3aR,6aS,8aR,10aS)-3-(4-chlorophenyl)-8,8,10a-trimethyl-6-methylene-3a,5,6,6a,7,8,8a,9,10,10a-decahydro-4H-cyclobuta [5,6]cyclonona [1,2-d]isoxazole]
IC50 at 72 h [1]: > 50 µM | IC50 (A549): > 50 µM | IC50 at 72 h [2]: > 50 µM | IC50 (DU145): > 50 µM | CC50 at 48 h (in vitro): 20.2 ± 1.9 µM | IC50 [3]: 16.8 ± 2.2 µM

CC1=CCCC2(CC(c3cc(Br)ccc3O)=NO2)C2CC(C)(C)C2CC1 [Compound 18a, 4-Bromo-2-((1S,2R,9R,E)-6,10,10-trimethyl-4′H-spiro[bicyclo [7.2.0]undecane-2,5′-isoxazol]-5-en-3′-yl)phenol]
IC50 at 72 h [1]: > 50 µM | IC50 (A549): > 50 µM | IC50 at 72 h [2]: > 50 µM | IC50 (DU145): > 50 µM | CC50 at 48 h (in vitro): 25.1 ± 1.8 µM | IC50 [3]: 4.78 ± 0.6 µM

C=C1CC[C@H]2C(c3cc(Br)ccc3O)=NO[C@]2(C)CC[C@@H]2[C@@H]1CC2(C)C [Compound 18b, 4-bromo-2-((3aS,6aS,8aR,10aR)-8,8,10a-trimethyl-6-methylene-3a,5,6,6a,7,8,8a,9,10,10a-decahydro-4H-cyclobuta [5,6]cyclonona [1,2-d]isoxazol-3-yl)phenol]
IC50 at 72 h [1]: 50 to 100 µM | IC50 (HEK293): 50 to 100 µM | IC50 (A549): > 50 µM | IC50 (VA-13): 50 to 100 µM | IC50 at 72 h [2]: 50 to 100 µM | IC50 (DU145): > 50 µM

C/C1=C\CC[C@@]2(CC(Br)=NO2)[C@H]2CC(C)(C)[C@@H]2CC1 [Compound 19a, (1S,2R,9R,E)-3′-Bromo-6,10,10-trimethyl-4′H-spiro[bicyclo [7.2.0]undecane-2,5′-isoxazol]-5-ene]
IC50 at 72 h [1]: > 50 µM | IC50 (A549): > 50 µM | IC50 at 72 h [2]: > 50 µM | IC50 (DU145): > 50 µM | CC50 at 48 h (in vitro): 19.6 ± 1.1 µM | IC50 [3]: > 12.3 µM

C=C1CC[C@H]2C(Br)=NO[C@]2(C)CC[C@@H]2[C@@H]1CC2(C)C [Compound 19b, (3aR,6aS,8aR,10aR)-3-bromo-8,8,10a-trimethyl-6-methylene-3a,5,6,6a,7,8,8a,9,10,10a-decahydro-4H-cyclobuta [5,6]cyclonona [1,2-d]isoxazole]
CC50 at 48 h (in vitro): 44.2 ± 3.6 µM | IC50 [3]: > 33.7 µM

C=C1CC[C@@H]2C(C)=NN(c3ccccc3)[C@@]2(C)CC[C@@H]2[C@@H]1CC2(C)C [Compound 21b, (3aS,6aS,8aR,10aS)-3,8,8,10a-tetramethyl-6-methylene-1-phenyl-1,3a,4,5,6,6a,7,8,8a,9,10,10a-dodecahydrocyclobuta [6,7]cyclonona [1,2-c]pyrazole]
IC50 at 72 h [1]: > 50 µM | IC50 (A549): > 50 µM | IC50 at 72 h [2]: > 50 µM | IC50 (DU145): > 50 µM | CC50 at 48 h (in vitro): 375 ± 15.6 µM | IC50 [3]: > 297 µM

C/C1=C\CC[C@@]2(CC(c3ccccc3)=NN2c2ccccc2)[C@H]2CC(C)(C)[C@@H]2CC1 [Compound 22a, (1S,2R,9R,E)-6,10,10-Trimethyl-2′,5′-diphenyl-2′,4′-dihydrospiro[bicyclo [7.2.0]undecane-2,3′-pyrazol]-5-ene]
IC50 at 72 h [1]: 50 to 100 µM | IC50 (HEK293): 50 to 100 µM | IC50 (A549): > 50 µM | IC50 (VA-13): 50 to 100 µM | IC50 at 72 h [2]: 50 to 100 µM | IC50 (DU145): > 50 µM | CC50 at 48 h (in vitro): 170 ± 12.1 µM | IC50 [3]: 72.7 ± 9.2 µM

C=C1CC[C@H]2C(c3ccccc3)=NN(c3ccccc3)[C@]2(C)CC[C@@H]2[C@@H]1CC2(C)C [Compound 22b, (3aR,6aS,8aR,10aR)-8,8,10a-trimethyl-6-methylene-1,3-diphenyl-1,3a,4,5,6,6a,7,8,8a,9,10,10a-dodecahydrocyclobuta [6,7]cyclonona [1,2-c]pyrazole]
IC50 at 72 h [1]: < 50 µM | IC50 (HEK293): 50 to 100 µM | IC50 (A549): > 50 µM | IC50 (VA-13): 50 to 100 µM | IC50 at 72 h [2]: < 50 µM | IC50 (DU145): > 50 µM | CC50 at 48 h (in vitro): 25.1 ± 1.6 µM | IC50 [3]: > 9.28 µM

C=C1CC[C@H]2C(c3c(OC)cccc3OC)=NN(c3c(Cl)cc(Cl)cc3Cl)[C@]2(C)CC[C@@H]2[C@@H]1CC2(C)C [Compound 23b, (3aR,6aS,8aR,10aR)-3-(2,6-dimethoxyphenyl)-8,8,10a-trimethyl-6-methylene-1-(2,4,6-trichlorophenyl)-1,3a,4,5,6,6a,7,8,8a,9,10,10a-dodecahydrocyclobuta [6,7]cyclonona [1,2-c]pyrazole]
IC50 at 72 h [1]: > 50 µM | IC50 (A549): > 50 µM | IC50 at 72 h [2]: > 50 µM | IC50 (DU145): > 50 µM | CC50 at 48 h (in vitro): > 535 µM | IC50 [3]: 178 ± 20.1 µM

COc1ccc(C2=NO[C@]3(CC[C@@H]4C(c5ccc(OC)cc5)=NO[C@@]4(C)CC[C@@H]4[C@@H]3CC4(C)C)C2)cc1 [Compound 26, (3aR,6R,6aS,8aR,10aS)-3,3′-Bis(4-methoxyphenyl)-8,8,10a-trimethyl-3a,4,5,6a,7,8,8a,9,10,10a-decahydro-4′H-spiro[cyclobuta [5,6]cyclonona [1,2-d]isoxazole-6,5′-isoxazole]]
IC50 at 72 h [1]: > 50 µM | IC50 (A549): > 50 µM | IC50 at 72 h [2]: > 50 µM | IC50 (DU145): > 50 µM | CC50 at 48 h (in vitro): > 652 µM | IC50 [3]: > 652 µM

CC1(C)C[C@H]2[C@H]1CC[C@@]1(C)ON=C(Br)[C@@H]1CC[C@@]21CC(Br)=NO1 [Compound 28, (3aR,6R,6aS,8aR,10aR)-3,3′-Dibromo-8,8,10a-trimethyl-3a,4,5,6a,7,8,8a,9,10,10a-decahydro-4′H-spiro[cyclobuta [5,6]cyclonona [1,2-d]isoxazole-6,5′-isoxazole]]
IC50 at 72 h [1]: 50 to 100 µM | IC50 (HEK293): 50 to 100 µM | IC50 (A549): > 50 µM | IC50 (VA-13): 50 to 100 µM | IC50 at 72 h [2]: 50 to 100 µM | IC50 (DU145): > 50 µM | CC50 at 48 h (in vitro): 13.8 ± 1.2 µM | IC50 [3]: > 8.7 µM

CC1(C)C[C@H]2[C@H]1CC[C@]1(C)[C@@H](CC[C@@]23CC(c2ccccc2)=NN3c2ccccc2)C(c2ccccc2)=NN1c1ccccc1 [Compound 29, (3aR,6R,6aS,8aR,10aR)-8,8,10a-trimethyl-1,2′,3,5′-tetraphenyl-2′,3a,4,4′,5,6a,7,8,8a,9,10,10a-Dodecahydro-1H-spiro[cyclobuta [6,7]cyclonona [1,2-c]pyrazole-6,3′-pyrazole]]
IC50 at 72 h [1]: > 50 µM | IC50 (A549): > 50 µM | IC50 at 72 h [2]: > 50 µM | IC50 (DU145): > 50 µM | CC50 at 48 h (in vitro): > 506 µM | IC50 [3]: 102 ± 12.6 µM

COc1cccc(OC)c1C1=NN(c2c(Cl)cc(Cl)cc2Cl)[C@]2(CC[C@H]3C(c4c(OC)cccc4OC)=NN(c4c(Cl)cc(Cl)cc4Cl)[C@]3(C)CC[C@@H]3[C@@H]2CC3(C)C)C1 [Compound 30, (3aR,6R,6aS,8aR,10aR)-3,5′-Bis(2,6-dimethoxyphenyl)-8,8,10a-trimethyl-1,2′-bis(2,4,6-trichlorophenyl)-2′,3a,4,4′,5,6a,7,8,8a,9,10,10a-dodecahydro-1H-spiro[cyclobuta [6,7]cyclonona [1,2-c]pyrazole-6,3′-pyrazole]]
IC50 at 72 h [1]: > 50 µM | IC50 (A549): > 50 µM | IC50 at 72 h [2]: > 50 µM | IC50 (DU145): > 50 µM | CC50 at 48 h (in vitro): > 330 µM | IC50 [3]: 71 ± 8.8 µM
